Assay results as given in patent US20090215857A1 (Pfizer Products Inc., priority 2005, published 2009).
Where a name gives a salt, the structure may show the parent alone.

What was measured:
[1] = molecular target: T1, human norepinephrine transporter (Homo sapiens, UniProt P23975); test: hNET receptor binding ([125I]-RTI-55 radioligand); conditions: membranes of HEK-293 cells transfected with human norepinephrine transporter cDNA; 50 pM [125I]-RTI-55; IC50 converted by Cheng-Prusoff; read-out: NET Ki
T1 construct: expressed in transfected cells; host or cells: HEK-293
How it was run: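 Membranes from HEK-293 cells expressing human NET were incubated 90 min at room temperature with 50 pM [125I]-RTI-55 and test compound (10^−5M to 10^−12M) in Krebs-HEPES, pH 7.4.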

[2] = tested on: capsaicin-induced mechanical allodynia; test: rat model of capsaicin-induced mechanical allodynia; assay type: in vivo; conditions: male Sprague-Dawley rats; 10 mg/kg subcutaneously; PWT 1 hour after single dose; mean of eight animals, normalized for vehicle
Description: Compounds of the present invention may be assayed for their ability to alleviate capsaicin-induced mechanical allodynia in a rat (e.g., Sluka (2002) J of Neuroscience, 22(13): 5687-5693). For example, a rat model of capsaicin-induced mechanical allodynia was carried out as follows:
On day 0, male Sprague-Dawley rats (˜150 g) in the dark cycle were placed in suspended wire-bottom cages and allowed to acclimate for 0.5 hour in a darkened, quiet room. The day 0 paw withdrawal threshold (PWT) was determined on the left hind paw by Von Frey hair assessment using the Dixon up and down method. After assessment, the plantar muscle of the right hind paw was injected with 100 μl capsaicin (0.25% (w/v) in 10% ethanol, 10% Tween 80, in sterile saline). On day 6 the PWT of the left hind paw (contralateral from injection site) was determined for each animal. Animals from the day 6 prereads with PWT ≦11.7 g were considered allodynic responders and were regrouped so that each cage had similar mean PWT values. On day 7, responders were dosed subcutaneously with 10 mg compound/kg body weight, or with vehicle alone. The vehicle was phosphate buffered saline containing 2% Cremophor® EL (BASF). The contralateral PWT values were determined at 1 hour after the single dose, with the investigator blinded to the dosing scheme.
For each animal, the day 6 PWT value was subtracted from the 1 hour PWT value to give a delta PWT value that represents the change in PWT due to the 1 hour drug treatment. In addition, the day 6 PWT was subtracted from the day 0 PWT to give the baseline window of allodynia present in each animal.
The mean percent Inhibition of allodynia values (for eight animals assayed for each compound)+/−the standard error of the mean (SEM) are shown in Table 15.

[3] = molecular target: T2, human serotonin transporter (Homo sapiens, UniProt P31645); test: hSERT receptor binding ([125I]-RTI-55 radioligand); conditions: membranes of HEK-293 cells transfected with human serotonin transporter cDNA; 50 pM [125I]-RTI-55; IC50 converted by Cheng-Prusoff; read-out: SERT Ki
T2 construct: expressed in transfected cells; host or cells: HEK-293
How it was run: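 Ki values derive via Cheng-Prusoff from IC50s of displacement of 50 pM [125I]-RTI-55 binding to transfected HEK-293 membranes, 90 min at room temperature in pH 7.4 Krebs-HEPES buffer. Compounds spanned 10^−12 to 10^−5 M, in duplicate; nonspecific binding was set with 10 μM citalopram.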

[4] = molecular target: T3, neuronal α-BGTX-insensitive central nicotinic receptor (Rattus norvegicus, UniProt P09483+P12390); test: [3H]cytisine radioligand binding assay, rat cerebral cortex; conditions: 10 μM compound; 1.5 nM [3H]cytisine; rat cerebral cortex membrane homogenates; read-out: Percent inhibition at 10 μM of compound (control radioligand specific binding)
T3 construct: Membrane homogenates of cerebral cortex (800 μg protein) are incubated; from tissue; host or cells: rat cerebral cortex membrane homogenates
Description: Several compounds were evaluated for their affinity for the neuronal α-BGTX-insensitive central nicotinic receptor in the rat cerebral cortex determined in a radioligand binding assay.
Experimental protocol Membrane homogenates of cerebral cortex (800 μg protein) are incubated for 75 min at 4° C. with 1.5 nM [^3H]cytisine in the absence or presence of the test compound (10 μM in a buffer containing 50 mM Tris-HCl (pH 7.4), 120 mM NaCl, 5 mM KCl, 1 mM MgCl2 and 2 mM CaCl2.
Nonspecific binding is determined in the presence of 10 μM nicotine.
Following incubation, the samples are filtered rapidly under vacuum through glass fiber filters (Filtermat B, Wallac) presoaked with 0.3% PEI (polyethyleneimine) and rinsed several times with ice-cold 50 mM Tris-HCl using a 48-sample cell harvester (Mach II, Tomtec). The filters are dried then counted for radioactivity in a scintillation counter (Betaplate 1204, Wallac) using a solid scintillator (Meltilex B/HS, Wallac).
The results are expressed as a percent inhibition of the control radioligand specific binding.
The standard reference compound is nicotine, which is tested in each experiment at several concentrations to obtain a competition curve from which its IC50 is calculated.

T2 sequence (P31645 whole entry): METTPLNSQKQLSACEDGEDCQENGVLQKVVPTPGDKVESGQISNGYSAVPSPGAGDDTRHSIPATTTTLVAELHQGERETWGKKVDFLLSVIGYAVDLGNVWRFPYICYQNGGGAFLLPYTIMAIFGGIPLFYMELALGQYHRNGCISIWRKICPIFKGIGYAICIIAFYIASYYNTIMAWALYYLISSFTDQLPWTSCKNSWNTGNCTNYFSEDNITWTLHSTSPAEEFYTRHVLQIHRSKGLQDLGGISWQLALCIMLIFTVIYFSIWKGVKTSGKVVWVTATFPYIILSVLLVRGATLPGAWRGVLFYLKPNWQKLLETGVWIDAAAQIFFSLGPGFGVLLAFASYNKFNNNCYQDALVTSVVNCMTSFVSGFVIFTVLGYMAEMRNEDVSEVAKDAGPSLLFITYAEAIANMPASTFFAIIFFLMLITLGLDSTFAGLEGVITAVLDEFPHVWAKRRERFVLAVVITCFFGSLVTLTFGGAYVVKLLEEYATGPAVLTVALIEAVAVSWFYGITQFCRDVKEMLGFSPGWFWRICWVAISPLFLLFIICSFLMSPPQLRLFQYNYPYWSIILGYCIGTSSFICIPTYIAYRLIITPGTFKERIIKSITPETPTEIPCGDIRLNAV
T1 sequence (P23975 whole entry): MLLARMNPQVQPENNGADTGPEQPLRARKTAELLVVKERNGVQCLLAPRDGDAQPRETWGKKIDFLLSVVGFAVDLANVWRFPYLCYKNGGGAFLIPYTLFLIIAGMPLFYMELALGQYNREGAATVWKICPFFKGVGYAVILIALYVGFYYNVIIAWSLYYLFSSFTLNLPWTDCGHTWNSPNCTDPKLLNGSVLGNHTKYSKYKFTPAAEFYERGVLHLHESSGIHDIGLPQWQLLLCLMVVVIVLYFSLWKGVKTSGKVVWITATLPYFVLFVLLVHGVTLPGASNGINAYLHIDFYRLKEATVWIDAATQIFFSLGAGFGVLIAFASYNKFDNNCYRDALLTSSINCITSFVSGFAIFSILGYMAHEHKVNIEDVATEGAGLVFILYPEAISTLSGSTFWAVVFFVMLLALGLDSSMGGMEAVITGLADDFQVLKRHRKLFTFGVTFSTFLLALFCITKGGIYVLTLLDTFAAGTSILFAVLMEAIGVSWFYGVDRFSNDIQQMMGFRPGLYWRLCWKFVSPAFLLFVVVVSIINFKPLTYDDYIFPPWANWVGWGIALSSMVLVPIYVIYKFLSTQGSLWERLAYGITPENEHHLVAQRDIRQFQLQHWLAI
T3 sequence (P09483 31-630): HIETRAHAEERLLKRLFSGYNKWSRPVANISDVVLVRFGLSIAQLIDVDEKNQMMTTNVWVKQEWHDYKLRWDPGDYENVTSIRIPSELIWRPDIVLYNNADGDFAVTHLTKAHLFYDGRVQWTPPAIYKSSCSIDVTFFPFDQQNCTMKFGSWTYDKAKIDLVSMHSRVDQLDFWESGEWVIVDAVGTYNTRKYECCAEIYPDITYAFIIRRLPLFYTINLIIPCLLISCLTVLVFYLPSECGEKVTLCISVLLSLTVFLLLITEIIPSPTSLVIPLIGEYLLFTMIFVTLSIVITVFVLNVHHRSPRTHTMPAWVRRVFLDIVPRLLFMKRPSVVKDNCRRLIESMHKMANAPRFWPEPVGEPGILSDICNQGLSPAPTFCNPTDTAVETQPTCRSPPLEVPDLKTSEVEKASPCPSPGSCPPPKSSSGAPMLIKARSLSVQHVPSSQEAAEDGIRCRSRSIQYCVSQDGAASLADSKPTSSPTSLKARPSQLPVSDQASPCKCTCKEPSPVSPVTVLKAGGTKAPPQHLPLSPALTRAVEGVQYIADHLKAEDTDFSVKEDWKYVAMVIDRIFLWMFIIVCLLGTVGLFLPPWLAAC
T3 sequence (P12390 25-500): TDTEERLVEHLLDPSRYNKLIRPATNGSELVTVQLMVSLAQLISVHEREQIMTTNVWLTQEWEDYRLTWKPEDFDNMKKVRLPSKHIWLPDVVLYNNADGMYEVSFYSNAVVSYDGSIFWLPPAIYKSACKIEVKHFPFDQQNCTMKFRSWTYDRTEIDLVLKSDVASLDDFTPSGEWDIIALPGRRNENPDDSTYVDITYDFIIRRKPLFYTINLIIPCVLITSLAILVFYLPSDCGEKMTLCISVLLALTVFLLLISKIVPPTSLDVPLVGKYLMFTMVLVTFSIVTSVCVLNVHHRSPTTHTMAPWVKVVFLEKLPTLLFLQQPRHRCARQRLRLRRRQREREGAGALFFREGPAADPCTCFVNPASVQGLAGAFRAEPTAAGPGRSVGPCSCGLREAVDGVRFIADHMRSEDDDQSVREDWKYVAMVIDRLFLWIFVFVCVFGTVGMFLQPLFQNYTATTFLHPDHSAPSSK

SMILES	Ki [1] [nM]	Ki [3] [nM]	% INHIBITION +/− SEM (inhibition of allodynia) [2]	inhibition at 10 µM [4] [%]
FC(F)(F)c1cccc(-c2ccccc2CO[C@H]2CCNC2)c1 [Example A-18, (S)-3-(3′-Trifluoromethyl-biphenyl-2-ylmethoxy)-pyrrolidine hydrochloride]	103	13	–	≤ 21
Fc1ccc(-c2ccc(F)cc2CO[C@H]2CCNC2)c(F)c1.O=C(O)/C=C/C(=O)O [Example A-3, (S)-3-(4,2′,4′-Trifluoro-biphenyl-2-ylmethoxy)-pyrrolidine fumarate]	10.8	134	17.40 +/− 9.9%	–
Fc1cc(F)cc(-c2ccccc2CO[C@H]2CCNC2)c1 [Example A-17, (S)-3-(3′,5′-Difluoro-biphenyl-2-ylmethoxy)-pyrrolidine hydrochloride]	93.5	15.1	–	≤ 21

The next lines start with results.

Ki [1] [nM]	Ki [3] [nM]	SMILES	% INHIBITION +/− SEM (inhibition of allodynia) [2]	inhibition at 10 µM [4] [%]
11.2	139	Cl.Fc1ccc(-c2cccc(F)c2F)c(CO[C@H]2CCNC2)c1 [Example A-4, (S)-3-(4,2′,3′-Trifluoro-biphenyl-2-ylmethoxy)-pyrrolidine hydrochloride]	30.20 +/− 1.8%	–
10.9	103	Fc1ccc(-c2ccccc2CO[C@H]2CCNC2)c(F)c1 [Example A-1, (S)-3-(2′,4′-Difluoro-biphenyl-2-ylmethoxy)-pyrrolidine fumarate]	40.90 +/− 10.2%	–
